Paper PMC7064328 (Environmental Health Perspectives, 2020)
Several values for one entry are separate records, joined by “and”; a condition that tells them apart may be missing. Equal values may be shown once.

Experiments:
[1] = Internal dosimetry of PFOA and GenX in maternal serum, maternal liver, amniotic fluid and whole embryos (UPLC-MS/MS); type: in vivo, mouse (CD-1)
Protocol: Solid tissues were homogenized in RODI water at a ratio of approximately 1:3 tissue mass (milligrams) to liquid volume (microliters). Maternal serum, amniotic fluid, and tissue homogenates ( 25μL ) were spiked with internal standard suspended in 0.1M formic acid in a denaturation step, followed by a subsequent protein crash using ice-cold acetonitrile. Samples were vortex mixed after addition of formic acid and acetonitrile and then centrifuged at 10,000×g for 5 min. Extract supernatants were separated using a Waters ACQUITY UPLC® (Waters Corporation) fitted with a Waters ACQUITY UPLC® BEH C18 Column ( 130Å; 1.7μm; 2.1mm×50mm ). Detection was performed using a Waters Quattro Premier™ XE tandem quadrupole mass spectrometer in negative ionization mode.

[2] = test system: placenta; assay: Placental histopathology; type: in vivo, mouse (CD-1)
Protocol: Dam livers, kidneys, and placentas were trimmed and embedded by the NIEHS Mouse Embryo Phenotyping Core. Tissues collected at necropsy were fixed in 4% PFA for 72 h and paraffin embedded, and 5-μm sections were prepared and stained with hematoxylin and eosin (H&E). Pathology was evaluated and a pathology review conducted by S.A.E. Diplomate American College of Veterinary Pathologists (DACVP). Pathology reviews were conducted as an informed approach analysis [e.g., nonblinded analysis; see Sills et al. ([2019])]. Select tissue slides were scanned using the AT2 Scanner (Aperio). Images were then captured for publication using the ImageScope software; version 12.3.0.5056 (Aperio). Serum and urine obtained from dams in Block 2 were analyzed using the AU480 clinical chemistry analyzer (Beckman Coulter Inc.). Reagents and calibration standards used to measure alkaline phosphatase (ALP), alanine aminotransferase (ALT), aspartate aminotransferase (AST), blood urea nitrogen (BUN), serum creatinine, urine creatinine, glucose (Glu), total protein (TP), triglyceride (Trig), high-density lipoprotein (HDL), cholesterol (Chol), and albumin (ALB) were purchased from Beckman Coulter Inc. Reagents for sorbitol dehydrogenase (SDH), total bile acid (TBA), and micro-TP were purchased from Sekisui Diagnostics. The reagent used to measure low-density lipoprotein (LDL) was purchased form Diazyme Laboratories.
Histopathological lesions of evaluated placenta were evaluated using two statistical approaches. The first approach assumed the absence of litter effects and considered each placenta evaluated within a treatment group to be a totally independent observation, regardless of its litter of origin. […] The second approach considered the litter as the biological unit and compared the relative incidence of placental lesions [e.g., percent within normal limits (WNL)] to adjust for differences in the total number of observations across litters within and between treatment groups. […] Both approaches were subjected to simultaneous tests for general linear hypotheses to correct for multiple comparisons using Tukey contrasts in the package multcomp ([Hothorn et al. 2009]).

SMILES: N.O=C(O)C(F)(OC(F)(F)C(F)(F)C(F)(F)F)C(F)(F)F (centres unmarked) [GenX, ammonium 2,3,3,3-tetrafluoro-2-(heptafluoropropoxy)propanoate]
- Serum concentration, pregnant mice ([1]; 2 mg/kg/d): ~33000 ng/mL
- Dam serum concentration ([1]; 10 mg/kg/d throughout gestation): ~100 µg/mL
- Amniotic fluid concentration ([1]; E11.5, 2 mg/kg/d): 3.6 ± 2.2 µg/mL
- Maternal liver concentration ([1]; E11.5, 2 mg/kg/d): 5.45 ± 3.43 µg/g
- Maternal serum concentration ([1]; E11.5, 2 mg/kg/d): 33.5 ± 15.7 µg/mL
- Whole embryo concentration ([1]; E11.5, 2 mg/kg/d): 0.91 ± 0.22 µg/g and 0.91 ± 0.2 µg/g
- GenX accumulation in dam serum higher than accumulation of PFOA ([1]; E11.5, 2 mg/kg/d GenX vs 1 mg/kg/d PFOA): 32%
- Amniotic fluid concentration ([1]; E11.5, 10 mg/kg/d): 9.3 ± 2.0 µg/mL
- Maternal liver concentration ([1]; E11.5, 10 mg/kg/d): 19.9 ± 4.2 µg/g
- Maternal serum concentration ([1]; E11.5, 10 mg/kg/d): 118.1 ± 10.4 µg/mL
- Whole embryo concentration ([1]; E11.5, 10 mg/kg/d): 3.21 ± 0.51 µg/g and 3.21 ± 0.5 µg/g
- Female embryo concentration ([1]; E17.5, 2 mg/kg/d): 3.39 ± 1.44 µg/g
- Male embryo concentration ([1]; E17.5, 2 mg/kg/d): 3.04 ± 1.27 µg/g
- Maternal liver concentration ([1]; E17.5, 2 mg/kg/d): 4.56 ± 2.80 µg/g
- Maternal serum concentration ([1]; E17.5, 2 mg/kg/d): 22.9 ± 17.1 µg/mL
- Whole embryo concentration ([1]; E17.5, 2 mg/kg/d): 3.23 ± 1.28 µg/g
- Female embryo concentration ([1]; E17.5, 10 mg/kg/d): 6.89 ± 2.72 µg/g
- Male embryo concentration ([1]; E17.5, 10 mg/kg/d): 7.55 ± 3.35 µg/g
- Maternal liver concentration ([1]; E17.5, 10 mg/kg/d): 14.2 ± 7.6 µg/g
- Maternal serum concentration ([1]; E17.5, 10 mg/kg/d): 58.5 ± 34.5 µg/mL
- Whole embryo concentration ([1]; E17.5, 10 mg/kg/d): 7.69 ± 2.92 µg/g
- Early fibrin clot: No. ([2]; E11.5, 2 mg/kg/d): 1
- Labyrinth atrophy: % ([2]; E11.5, 2 mg/kg/d): 0%
- Labyrinth atrophy: No. ([2]; E11.5, 2 mg/kg/d): 0
- Labyrinth congestion: % ([2]; E11.5, 2 mg/kg/d): 0%
- Labyrinth congestion: No. ([2]; E11.5, 2 mg/kg/d): 0
- Labyrinth necrosis: % ([2]; E11.5, 2 mg/kg/d): 0%
- Labyrinth necrosis: No. ([2]; E11.5, 2 mg/kg/d): 0
- Mean WNL per litter (%) ([2]; E11.5, 2 mg/kg/d): 95.6%
- Mean WNL ± SD per litter ([2]; E11.5, 2 mg/kg/d): 8.2 ± 2.8
- Mean abnormal per litter (%) ([2]; E11.5, 2 mg/kg/d): 4.4%
- Mean abnormal ± SD per litter ([2]; E11.5, 2 mg/kg/d): 0.4 ± 0.9
- Other placental lesions: % ([2]; E11.5, 2 mg/kg/d): 2.3%
- Other placental lesions: No. ([2]; E11.5, 2 mg/kg/d): 1
- Placental nodule: % ([2]; E11.5, 2 mg/kg/d): 0%
- Placental nodule: No. ([2]; E11.5, 2 mg/kg/d): 0
- Placentas WNL: % ([2]; E11.5, 2 mg/kg/d): 95.3%
- Placentas WNL: No. ([2]; E11.5, 2 mg/kg/d): 41
- Placentas abnormal: % ([2]; E11.5, 2 mg/kg/d): 4.7%
- Placentas abnormal: No. ([2]; E11.5, 2 mg/kg/d): 2
- Early fibrin clot: % ([2]; E11.5, 10 mg/kg/d): 0%
- Early fibrin clot: No. ([2]; E11.5, 10 mg/kg/d): 0
- Labyrinth atrophy: % ([2]; E11.5, 10 mg/kg/d): 0%
- Labyrinth atrophy: No. ([2]; E11.5, 10 mg/kg/d): 0
- Labyrinth congestion: % ([2]; E11.5, 10 mg/kg/d): 0%
- Labyrinth congestion: No. ([2]; E11.5, 10 mg/kg/d): 0
- Labyrinth necrosis: % ([2]; E11.5, 10 mg/kg/d): 0%
- Labyrinth necrosis: No. ([2]; E11.5, 10 mg/kg/d): 0
- Mean WNL per litter (%) ([2]; E11.5, 10 mg/kg/d): 97.1%
- Mean WNL ± SD per litter ([2]; E11.5, 10 mg/kg/d): 6.0 ± 3.1
- Mean abnormal per litter (%) ([2]; E11.5, 10 mg/kg/d): 0%
- Mean abnormal ± SD per litter ([2]; E11.5, 10 mg/kg/d): 0 ± 0.0
- Other placental lesions: % ([2]; E11.5, 10 mg/kg/d): 0%
- Other placental lesions: No. ([2]; E11.5, 10 mg/kg/d): 0
- Placental nodule: % ([2]; E11.5, 10 mg/kg/d): 0%
- Placental nodule: No. ([2]; E11.5, 10 mg/kg/d): 0
- Placentas WNL: % ([2]; E11.5, 10 mg/kg/d): 100%
- Placentas WNL: No. ([2]; E11.5, 10 mg/kg/d): 30
- Placentas abnormal: % ([2]; E11.5, 10 mg/kg/d): 0.0%
- Placentas abnormal: No. ([2]; E11.5, 10 mg/kg/d): 0
- Early fibrin clot: % ([2]; E17.5, 2 mg/kg/d): 3.2%
- Early fibrin clot: No. ([2]; E17.5, 2 mg/kg/d): 1
- Labyrinth atrophy: % ([2]; E17.5, 2 mg/kg/d): 48.4%
- Labyrinth atrophy: No. ([2]; E17.5, 2 mg/kg/d): 15
- Labyrinth congestion: % ([2]; E17.5, 2 mg/kg/d): 3.2%
- Labyrinth congestion: No. ([2]; E17.5, 2 mg/kg/d): 1
- Labyrinth necrosis: % ([2]; E17.5, 2 mg/kg/d): 0%
- Labyrinth necrosis: No. ([2]; E17.5, 2 mg/kg/d): 0
- Mean WNL per litter (%) ([2]; E17.5, 2 mg/kg/d): 51.7%
- Mean WNL ± SD per litter ([2]; E17.5, 2 mg/kg/d): 2.6 ± 2.8
- Mean abnormal per litter (%) ([2]; E17.5, 2 mg/kg/d): 48.3%
- Mean abnormal ± SD per litter ([2]; E17.5, 2 mg/kg/d): 3.6 ± 3.6
- Other placental lesions: % ([2]; E17.5, 2 mg/kg/d): 0%
- Other placental lesions: No. ([2]; E17.5, 2 mg/kg/d): 0
- Placental nodule: % ([2]; E17.5, 2 mg/kg/d): 3.2%
- Placental nodule: No. ([2]; E17.5, 2 mg/kg/d): 1
- Placentas WNL: % ([2]; E17.5, 2 mg/kg/d): 41.9%
- Placentas WNL: No. ([2]; E17.5, 2 mg/kg/d): 13
- Placentas abnormal: % ([2]; E17.5, 2 mg/kg/d): 58.1%
- Placentas abnormal: No. ([2]; E17.5, 2 mg/kg/d): 18
- Early fibrin clot: % ([2]; E17.5, 10 mg/kg/d): 11.4%
- Early fibrin clot: No. ([2]; E17.5, 10 mg/kg/d): 4
- Labyrinth atrophy: % ([2]; E17.5, 10 mg/kg/d): 45.7%
- Labyrinth atrophy: No. ([2]; E17.5, 10 mg/kg/d): 16
- Labyrinth congestion: % ([2]; E17.5, 10 mg/kg/d): 22.9%
- Labyrinth congestion: No. ([2]; E17.5, 10 mg/kg/d): 8
- Labyrinth necrosis: % ([2]; E17.5, 10 mg/kg/d): 2.9%
- Labyrinth necrosis: No. ([2]; E17.5, 10 mg/kg/d): 1
- Mean WNL per litter (%) ([2]; E17.5, 10 mg/kg/d): 12.0%
- Mean WNL ± SD per litter ([2]; E17.5, 10 mg/kg/d): 1.2 ± 2.7
- Mean abnormal per litter (%) ([2]; E17.5, 10 mg/kg/d): 88.0%
- Mean abnormal ± SD per litter ([2]; E17.5, 10 mg/kg/d): 5.8 ± 3.0
- Other placental lesions: % ([2]; E17.5, 10 mg/kg/d): 0%
- Other placental lesions: No. ([2]; E17.5, 10 mg/kg/d): 0
- Placental nodule: % ([2]; E17.5, 10 mg/kg/d): 0%
- Placental nodule: No. ([2]; E17.5, 10 mg/kg/d): 0
- Placentas WNL: % ([2]; E17.5, 10 mg/kg/d): 17.1%
- Placentas WNL: No. ([2]; E17.5, 10 mg/kg/d): 6
- Placentas abnormal: % ([2]; E17.5, 10 mg/kg/d): 82.9%
- Placentas abnormal: No. ([2]; E17.5, 10 mg/kg/d): 29
- Lowest dose tested resulting in adverse placental pathology ([2]; this study): 2 mg/kg/d
